Laboratory results published in ChEMBL document CHEMBL3046389, “Synthesis and biological evaluation of novel hydroquinone dimethyl ethers as potential anticancer and antimicrobial agents” (2013).
≈ marks a conversion by molar mass, not a printed value.

How the values were obtained:
Assay type in all cases: functional
SF-539 = assay: Anticancer activity against Homo sapiens (human) SF539 cells after 48 hr by SRB assay; details: SF-539, 48 h
HT-29 = assay: Anticancer activity against Homo sapiens (human) HT-29 cells after 48 hr by SRB assay; details: HT-29, 48 h
HOP-92 = assay: Anticancer activity against Homo sapiens (human) HOP92 cells after 48 hr by SRB assay; details: HOP-92, 48 h
RPMI-8226 = assay: Anticancer activity against Homo sapiens (human) RPMI8226 cells after 48 hr by SRB assay; details: RPMI-8226, 48 h
PC-3 = assay: Growth inhibition of Homo sapiens (human) PC3 cells at 10 uM after 48 hr by SRB assay; details: PC-3, 48 h, read-out: GI
NCI/ADR-RES = assay: Anticancer activity against Homo sapiens (human) NCI/ADR-RES cells after 48 hr by SRB assay
SW-620 = assay: Anticancer activity against Homo sapiens (human) SW620 cells after 48 hr by SRB assay; details: SW-620, 48 h
HL-60(TB) = assay: Growth inhibition of Homo sapiens (human) HL-60(TB) cells at 10 uM after 48 hr by SRB assay; details: HL-60, 48 h, read-out: GI
SNB-19 = assay: Anticancer activity against Homo sapiens (human) SNB19 cells after 48 hr by SRB assay; details: SNB-19, 48 h
K562 = assay: Anticancer activity against Homo sapiens (human) K562 cells after 48 hr by SRB assay; details: K562, 48 h
SK-MEL-2 = assay: Anticancer activity against Homo sapiens (human) SK-MEL-2 cells after 48 hr by SRB assay; details: SK-MEL-2, 48 h
IGROV-1 = assay: Growth inhibition of Homo sapiens (human) IGROV1 cells at 10 uM after 48 hr by SRB assay; details: IGROV-1, 48 h, read-out: GI
MDA-MB-468 = assay: Growth inhibition of Homo sapiens (human) MDA-MB-468 cells at 10 uM after 48 hr by SRB assay; details: MDA-MB-468, 48 h, read-out: GI
HCT-116 = assay: Anticancer activity against Homo sapiens (human) HCT116 cells after 48 hr by SRB assay; details: HCT-116, 48 h
CCRF-CEM = assay: Growth inhibition of Homo sapiens (human) CCRF-CEM cells at 10 uM after 48 hr by SRB assay; details: read-out: GI
SK-OV-3 = assay: Anticancer activity against Homo sapiens (human) SKOV3 cells after 48 hr by SRB assay; details: SK-OV-3, 48 h
UO-31 = assay: Growth inhibition of Homo sapiens (human) UO31 cells at 10 uM after 48 hr by SRB assay; details: UO-31, 48 h, read-out: GI
Candida albicans = assay: Antimicrobial activity against Candida albicans DSM 70014 after 48 hr by two-fold serial broth dilution method; details: DSM 70014, 48 h
786-0 = assay: Anticancer activity against Homo sapiens (human) 786-0 cells after 48 hr by SRB assay; details: 786-0, 48 h
NCI-H460 [1] = assay: Growth inhibition of Homo sapiens (human) NCI-H460 cells at 10 uM after 48 hr by SRB assay; details: NCI-H460, 48 h, read-out: GI
TK-10 = assay: Anticancer activity against Homo sapiens (human) TK10 cells after 48 hr by SRB assay; details: TK-10, 48 h
Malme-3M = assay: Anticancer activity against Homo sapiens (human) MALME-3M cells after 48 hr by SRB assay
NCI-H522 = assay: Anticancer activity against Homo sapiens (human) NCI-H522 cells after 48 hr by SRB assay; details: NCI-H522, 48 h
MCF7 = assay: Growth inhibition of Homo sapiens (human) MCF7 cells at 10 uM after 48 hr by SRB assay; details: MCF7, 48 h, read-out: GI
SF-295 = assay: Anticancer activity against Homo sapiens (human) SF295 cells after 48 hr by SRB assay; details: SF-295, 48 h
MOLT-4 = assay: Anticancer activity against Homo sapiens (human) MOLT4 cells after 48 hr by SRB assay; details: MOLT-4, 48 h
LOX IMVI = assay: Anticancer activity against Homo sapiens (human) LOXIMVI cells after 48 hr by SRB assay
Hs-578T = assay: Anticancer activity against Homo sapiens (human) Hs 578T cells after 48 hr by SRB assay
Pseudomonas aeruginosa = assay: Antimicrobial activity against Pseudomonas aeruginosa ATCC 10145 after 48 hr by two-fold serial broth dilution method; details: ATCC 10145, 48 h
Escherichia coli = assay: Antimicrobial activity against Escherichia coli ATCC 11775 after 48 hr by two-fold serial broth dilution method; details: ATCC 11775, 48 h
NCI-H460 [2] = assay: Anticancer activity against Homo sapiens (human) NCI-H460 cells after 48 hr by SRB assay; details: NCI-H460, 48 h
M14 = assay: Anticancer activity against Homo sapiens (human) M14 cells after 48 hr by SRB assay; details: M14, 48 h
[3] = read-out: LC50 (the source's name)

## COc1ccc(OC)c(/C=C/C(=O)N/N=C/c2ccc(Cl)cc2)c1
SF-539
  GI50: 0.258 µM
  TGI: 3.16 µM
SF-539; [3]
  CC50: > 100 µM
HT-29
  GI50: 0.0435 µM
  TGI: 1.52 µM
HT-29; [3]
  CC50: > 100 µM
HOP-92
  GI50: 4.43 µM
  TGI: 58.9 µM
HOP-92; [3]
  CC50: > 100 µM
RPMI-8226
  GI50: 0.3 µM
  TGI: 15.7 µM
RPMI-8226; [3]
  CC50: > 100 µM
PC-3
  inhibition of growth at 10 µM: 73.8%
NCI/ADR-RES
  GI50: 0.0391 µM
  LC50: 90.6 µM
  TGI: 0.233 µM
SW-620
  GI50: 0.0813 µM
  TGI: > 100 µM
SW-620; [3]
  CC50: > 100 µM
HL-60(TB)
  inhibition of growth at 10 µM: 79.9%
SNB-19
  GI50: 0.34 µM
  TGI: > 100 µM
SNB-19; [3]
  CC50: > 100 µM
K562
  GI50: 0.0488 µM
  TGI: > 100 µM
K562; [3]
  CC50: > 100 µM
SK-MEL-2
  GI50: 24.7 µM
  TGI: > 100 µM
SK-MEL-2; [3]
  CC50: > 100 µM
IGROV-1
  inhibition of growth at 10 µM: 82.1%
MDA-MB-468
  inhibition of growth at 10 µM: 104%
HCT-116
  GI50: 0.075 µM
  TGI: 3.05 µM
HCT-116; [3]
  CC50: > 100 µM
CCRF-CEM
  inhibition of growth at 10 µM: 86.3%
SK-OV-3
  GI50: 0.149 µM
  LC50: > 100 µM
  TGI: 13.9 µM
UO-31
  inhibition of growth at 10 µM: 69.9%
Candida albicans
  MFC: 50 µg/mL (≈ 145 µM)
  MIC: 25 µg/mL (≈ 72.5 µM)
786-0
  GI50: 0.326 µM
  TGI: > 100 µM
786-0; [3]
  CC50: > 100 µM
NCI-H460 [1]
  inhibition of growth at 10 µM: 94.8%
TK-10
  GI50: 0.691 µM
  TGI: > 100 µM
TK-10; [3]
  CC50: > 100 µM
Malme-3M
  TGI: > 100 µM
Malme-3M; [3]
  CC50: > 100 µM
NCI-H522
  GI50: 0.0292 µM
  TGI: 0.382 µM
NCI-H522; [3]
  CC50: > 100 µM
MCF7
  inhibition of growth at 10 µM: 91.1%
SF-295
  GI50: 0.129 µM
  TGI: 6.44 µM
SF-295; [3]
  CC50: > 100 µM
MOLT-4
  GI50: 0.523 µM
  TGI: > 100 µM
MOLT-4; [3]
  CC50: > 100 µM
LOX IMVI
  GI50: 0.254 µM
  TGI: > 100 µM
LOX IMVI; [3]
  CC50: > 100 µM
Hs-578T
  GI50: 0.284 µM
  TGI: > 100 µM
Hs-578T; [3]
  CC50: > 100 µM
Pseudomonas aeruginosa
  MBC: 50 µg/mL (≈ 145 µM)
  MIC: 50 µg/mL (≈ 145 µM)
Escherichia coli
  MBC: 100 µg/mL (≈ 290 µM)
  MIC: 50 µg/mL (≈ 145 µM)
NCI-H460 [2]
  GI50: 0.119 µM
  TGI: 13.8 µM
NCI-H460 [2]; [3]
  CC50: > 100 µM
M14
  GI50: 0.0879 µM
  LC50: > 100 µM
  TGI: 6.7 µM
